The record followed here is patent publication US8969356B2, “Compounds useful as inhibitors of ATR kinase” (Vertex Pharmaceuticals Incorporated, priority 2010, dated 2015).

A value given as a limit tells only on which side of the number the result lay.

T1 sequence (Q13535 whole entry): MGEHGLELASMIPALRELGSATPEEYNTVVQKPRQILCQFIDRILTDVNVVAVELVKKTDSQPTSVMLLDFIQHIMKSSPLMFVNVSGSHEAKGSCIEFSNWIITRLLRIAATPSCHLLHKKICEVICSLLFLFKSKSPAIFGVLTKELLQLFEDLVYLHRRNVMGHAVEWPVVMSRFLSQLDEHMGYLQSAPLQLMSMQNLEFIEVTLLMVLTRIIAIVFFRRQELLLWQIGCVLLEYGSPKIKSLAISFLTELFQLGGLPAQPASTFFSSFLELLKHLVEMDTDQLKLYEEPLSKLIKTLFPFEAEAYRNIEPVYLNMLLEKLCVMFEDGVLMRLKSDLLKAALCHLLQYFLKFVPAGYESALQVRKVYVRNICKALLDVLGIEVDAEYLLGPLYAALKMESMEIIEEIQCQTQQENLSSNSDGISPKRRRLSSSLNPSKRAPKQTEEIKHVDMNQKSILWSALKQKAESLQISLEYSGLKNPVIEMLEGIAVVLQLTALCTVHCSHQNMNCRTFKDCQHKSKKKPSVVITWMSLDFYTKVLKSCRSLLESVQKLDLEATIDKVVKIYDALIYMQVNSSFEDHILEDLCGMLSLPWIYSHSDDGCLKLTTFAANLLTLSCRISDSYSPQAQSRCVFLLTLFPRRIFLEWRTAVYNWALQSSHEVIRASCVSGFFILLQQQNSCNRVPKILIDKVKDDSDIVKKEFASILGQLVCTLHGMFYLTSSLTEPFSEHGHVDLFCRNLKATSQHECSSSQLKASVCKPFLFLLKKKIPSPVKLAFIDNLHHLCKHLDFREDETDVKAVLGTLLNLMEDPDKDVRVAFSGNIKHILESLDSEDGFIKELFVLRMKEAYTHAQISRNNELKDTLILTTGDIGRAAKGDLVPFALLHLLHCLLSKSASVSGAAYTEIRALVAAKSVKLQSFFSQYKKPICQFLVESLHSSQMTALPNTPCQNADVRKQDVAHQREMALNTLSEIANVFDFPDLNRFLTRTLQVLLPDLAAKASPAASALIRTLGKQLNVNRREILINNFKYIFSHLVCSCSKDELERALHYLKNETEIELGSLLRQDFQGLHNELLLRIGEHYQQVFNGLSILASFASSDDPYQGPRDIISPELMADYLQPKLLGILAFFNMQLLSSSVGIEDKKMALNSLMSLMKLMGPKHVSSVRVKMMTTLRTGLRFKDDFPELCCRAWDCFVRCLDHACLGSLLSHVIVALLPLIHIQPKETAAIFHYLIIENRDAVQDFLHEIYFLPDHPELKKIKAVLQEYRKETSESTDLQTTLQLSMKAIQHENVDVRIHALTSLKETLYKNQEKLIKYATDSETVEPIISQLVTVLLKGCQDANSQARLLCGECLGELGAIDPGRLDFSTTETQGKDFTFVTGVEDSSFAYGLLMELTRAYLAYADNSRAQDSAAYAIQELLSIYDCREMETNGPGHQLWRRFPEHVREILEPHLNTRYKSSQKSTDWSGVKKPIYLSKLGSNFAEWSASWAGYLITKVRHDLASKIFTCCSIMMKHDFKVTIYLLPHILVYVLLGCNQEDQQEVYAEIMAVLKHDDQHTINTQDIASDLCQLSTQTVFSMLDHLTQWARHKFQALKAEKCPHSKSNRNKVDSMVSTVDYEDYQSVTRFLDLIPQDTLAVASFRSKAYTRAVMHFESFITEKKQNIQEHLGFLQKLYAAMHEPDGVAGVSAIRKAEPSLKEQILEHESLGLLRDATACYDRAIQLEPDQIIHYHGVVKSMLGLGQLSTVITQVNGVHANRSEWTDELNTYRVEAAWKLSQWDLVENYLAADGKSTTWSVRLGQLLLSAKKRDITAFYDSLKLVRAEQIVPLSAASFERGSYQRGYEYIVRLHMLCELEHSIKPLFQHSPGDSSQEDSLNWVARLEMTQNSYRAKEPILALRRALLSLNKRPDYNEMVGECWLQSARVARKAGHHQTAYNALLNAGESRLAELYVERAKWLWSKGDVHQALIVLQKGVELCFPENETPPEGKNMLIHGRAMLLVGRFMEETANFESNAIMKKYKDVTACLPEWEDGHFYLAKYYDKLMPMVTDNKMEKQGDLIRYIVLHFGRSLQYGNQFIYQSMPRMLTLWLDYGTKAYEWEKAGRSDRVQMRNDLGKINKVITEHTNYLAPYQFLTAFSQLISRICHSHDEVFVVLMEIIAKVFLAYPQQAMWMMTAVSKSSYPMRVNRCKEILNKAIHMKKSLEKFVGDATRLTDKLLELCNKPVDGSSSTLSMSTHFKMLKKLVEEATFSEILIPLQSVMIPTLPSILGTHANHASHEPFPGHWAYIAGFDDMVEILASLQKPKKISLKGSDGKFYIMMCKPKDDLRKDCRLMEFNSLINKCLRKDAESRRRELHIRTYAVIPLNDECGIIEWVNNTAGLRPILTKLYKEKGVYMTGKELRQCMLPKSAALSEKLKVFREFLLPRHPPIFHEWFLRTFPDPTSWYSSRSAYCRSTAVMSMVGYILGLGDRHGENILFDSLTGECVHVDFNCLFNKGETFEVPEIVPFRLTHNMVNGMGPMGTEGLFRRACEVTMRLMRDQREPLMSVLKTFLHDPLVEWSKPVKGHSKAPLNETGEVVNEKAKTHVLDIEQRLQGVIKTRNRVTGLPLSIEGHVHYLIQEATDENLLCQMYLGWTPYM

The first test addresses T1, ATR kinase (Homo sapiens, UniProt Q13535).
T1 construct: Assays were carried out at 25° C. in the presence of 5 nM full-length ATR
As to the kind of experiment: ATR Inhibition Assay (radioactive-phosphate incorporation). The test is classed as biochemical.
Details: not given
The protocol: Compounds were screened for their ability to inhibit ATR kinase using a radioactive-phosphate incorporation assay. Assays were carried out in a mixture of 50 mM Tris/HCl (pH 7.5), 10 mM MgCl2 and 1 mM DTT. Final substrate concentrations were 10 μM [γ-33P]ATP (3mCi 33P ATP/mmol ATP, Perkin Elmer) and 800 μM target peptide ([…] (SEQ. ID NO: 1)).
Assays were carried out at 25° C. in the presence of 5 nM full-length ATR. An assay stock buffer solution was prepared containing all of the reagents listed above, with the exception of ATP and the test compound of interest. 13.5 μL of the stock solution was placed in a 96 well plate followed by addition of 2 μL of DMSO stock containing serial dilutions of the test compound (typically starting from a final concentration of 15 μM with 3-fold serial dilutions) in duplicate (final DMSO concentration 7%). The plate was pre-incubated for 10 minutes at 25° C. and the reaction initiated by addition of 15 μL [γ-33P]ATP (final concentration 10 μM).
The reaction was stopped after […] by the addition of 30 μL 0.1M phosphoric acid containing 2 mM ATP. A multiscreen phosphocellulose filter 96-well plate (Millipore, Cat no. MAPHN0B50) was pretreated with 100 μL 0.2M phosphoric acid prior to the addition of 45 μL of the stopped assay mixture. The plate was washed with 5×200 μL 0.2M phosphoric acid. After drying, 100 μL Optiphase ‘SuperMix’ liquid scintillation cocktail (Perkin Elmer) was added to the well prior to scintillation counting (1450 Microbeta Liquid Scintillation Counter, Wallac).
After removing mean background values for all of the data points, Ki(app) data were calculated from non-linear regression analysis of the initial rate data using the Prism software package (GraphPad Prism version 3.0cx for Macintosh, GraphPad Software, San Diego Calif., USA).
For the compound `CC(C)S(=O)(=O)c1ccc(-c2cnc(N)c(C#CC3CC3)n2)cc1` [Compound I-27, 3-(2-Cyclopropylethynyl)-5-(4-isopropylsulfonylphenyl)pyrazin-2-amine], the inhibition constant Ki was 100 to 1000 nM.
The same measure, in the same setting: as for `CC(C)S(=O)(=O)c1ccc(-c2cnc(N)c(C#Cc3cccc4[nH]ncc34)n2)cc1` [Compound I-44, 3-((1H-indazol-4-yl)ethynyl)-5-(4-(isopropylsulfonyl)phenyl)pyrazin-2-amine], the figure is at most 100 nM; as for `CC(C)S(=O)(=O)c1ccc(-c2cnc(N)c(C#Cc3ccccc3N)n2)cc1` [Compound I-38, 3-((2-aminophenyl)ethynyl)-5-(4-(isopropylsulfonyl)phenyl)pyrazin-2-amine], 100 to 1000 nM; as for `C[S+]([O-])c1ccccc1-c1cnc(N)c(C#Cc2cccc(O)c2)n1` (centres unmarked) [Compound I-23, 3-[2-[3-Amino-6-(2-methylsulfinylphenyl)pyrazin-2-yl]ethynyl]phenol], at most 100 nM.
Still for that read-out and setting: as for `CC(C)S(=O)(=O)c1ccc(-c2cnc(N)c(C#Cc3ccncc3)n2)cc1` [Compound I-32, 5-(4-Isopropylsulfonylphenyl)-3-[2-(4-pyridyl)ethynyl]pyrazin-2-amine], the figure is at most 100 nM.
Still for that read-out and setting: as for `CC(=O)Nc1cccc(C#Cc2nc(-c3ccc(S(=O)(=O)C(C)C)cc3)cnc2N)c1` [Compound I-6, N-[3-[2-[3-Amino-6-(4-isopropylsulfonylphenyl)pyrazin-2-yl]ethynyl]phenyl]acetamide], the figure is at most 100 nM; as for `CC(C)S(=O)(=O)c1ccc(-c2cnc(N)c(C#Cc3cccc(OCCN(C)C)c3)n2)cc1` [Compound I-26, 3-[2-[3-(2-Dimethylaminoethyloxy)phenyl]ethynyl]-5-(4-isopropylsulfonylphenyl)pyrazin-2-amine], 100 to 1000 nM; as for `CC(C)S(=O)(=O)c1ccc(-c2cnc(N)c(C#CCc3ccccc3)n2)cc1` [Compound I-10, 5-(4-isopropylsulfonylphenyl)-3-(3-phenylprop-1-ynyl)pyrazin-2-amine], 1000 to 13000 nM.
For the compound `CC(C)S(=O)(=O)c1ccc(-c2cnc(N)c(C#C[C@H](C)O)n2)cc1` [Compound I-29, (2S)-4-[3-Amino-6-(4-isopropylsulfonylphenyl)pyrazin-2-yl]but-3-yn-2-ol], the Ki lay in the range of 1000 to 13000 nM.
With `C#Cc1nc(-c2ccc(S(=O)(=O)C(C)C)cc2)cnc1N` [Compound I-5, 3-Ethynyl-5-(4-isopropylsulfonylphenyl)pyrazin-2-amine], the Ki is 100 to 1000 nM.
The same measure, in the same setting: as for `CC(C)S(=O)(=O)c1ccc(-c2cnc(N)c(C#Cc3cccc(OCCN)c3)n2)cc1` [Compound I-25, 3-[2-[3-(2-Aminoethoxy)phenyl]ethynyl]-5-(4-isopropylsulfonylphenyl)pyrazin-2-amine], the figure is at most 100 nM.
Still for that read-out and setting: as for `CC(C)S(=O)(=O)c1ccc(-c2cnc(N)c(C#Cc3ccc(C#N)cc3)n2)cc1` [Compound I-15, 4-[2-[3-Amino-6-(4-isopropylsulfonylphenyl)pyrazin-2-yl]ethynyl]benzonitrile], the figure is 1000 to 13000 nM; as for `CC(C)S(=O)(=O)c1ccc(-c2cnc(N)c(C#Cc3cccc(N)n3)n2)cc1` [Compound I-41, 3-((6-aminopyridin-2-yl)ethynyl)-5-(4-(isopropylsulfonyl)phenyl)pyrazin-2-amine], at most 100 nM.
Still for that read-out and setting: in the case of `CC(C)S(=O)(=O)c1ccc(-c2cnc(N)c(C#Cc3ccc(C(O)CN)cc3)n2)cc1` (centres unmarked) [Compound I-42, 2-amino-1-(4-((3-amino-6-(4-(isopropylsulfonyl)phenyl)pyrazin-2-yl)ethynyl)phenyl)ethanol] it was at most 100 nM.
As for `CC(C)S(=O)(=O)c1ccc(-c2cnc(N)c(C#Cc3ccsc3)n2)cc1` [Compound I-31, 5-(4-Isopropylsulfonylphenyl)-3-[2-(3-thienyl)ethynyl]pyrazin-2-amine], the Ki was in the range of 100 to 1000 nM.
For the compound `Cc1ccc(O)cc1C#Cc1nc(-c2ccc(S(=O)(=O)C(C)C)cc2)cnc1N` [Compound I-47, 3-((3-amino-6-(4-(isopropylsulfonyl)phenyl)pyrazin-2-yl)ethynyl)-4-methylphenol], the Ki was at most 100 nM.
On to `CC(C)S(=O)(=O)c1ccc(-c2cnc(N)c(C#Cc3cccc(OCCCN)c3)n2)cc1` [Compound I-24, 3-[2-[3-(3-Aminopropoxy)phenyl]ethynyl]-5-(4-isopropylsulfonylphenyl)pyrazin-2-amine], for which the Ki is at most 100 nM.
`CC(C)S(=O)(=O)c1ccc(-c2cnc(N)c(C#CC3CCCCC3)n2)cc1` [Compound I-8, 3-(2-Cyclohexylethynyl)-5-(4-isopropylsulfonylphenyl)pyrazin-2-amine]: the inhibition constant Ki lay within 100 to 1000 nM.
With `CC(C)S(=O)(=O)c1ccc(-c2cnc(N)c(C#Cc3cccc4ccccc34)n2)cc1` [Compound I-2, 5-(4-Isopropylsulfonylphenyl)-3-[2-(1-naphthyl)ethynyl]pyrazin-2-amine], the Ki was at most 100 nM.
For `CC(C)S(=O)(=O)c1ccc(-c2cnc(N)c(C#Cc3ccc4[nH]ncc4c3)n2)cc1` [Compound I-45, 3-((1H-indazol-5-yl)ethynyl)-5-(4-(isopropylsulfonyl)phenyl)pyrazin-2-amine], the inhibition constant (Ki) is at most 100 nM.
With `CC(C)S(=O)(=O)c1ccc(-c2cnc(N)c(C#Cc3cccnc3)n2)cc1` [Compound I-13, 5-(4-Isopropylsulfonylphenyl)-3-[2-(3-pyridyl)ethynyl]pyrazin-2-amine], the Ki was at most 100 nM.
For `CNCc1cccc(C#Cc2nc(-c3ccc(S(=O)(=O)C(C)C)cc3)cnc2N)c1` [Compound I-28, 5-(4-Isopropylsulfonylphenyl)-3-[2-[3-(methylaminomethyl)phenyl]ethynyl]pyrazin-2-amine], the Ki is at most 100 nM.
On to `COc1ccccc1C#Cc1nc(-c2ccc(S(=O)(=O)C(C)C)cc2)cnc1N` [Compound I-19, 5-(4-Isopropylsulfonylphenyl)-3-[2-(2-methoxyphenyl)ethynyl]pyrazin-2-amine], for which the Ki fell in the range of 100 to 1000 nM.
`CC(C)S(=O)(=O)c1ccc(-c2cnc(N)c(C#Cc3cccc(Cl)c3)n2)cc1` [Compound I-9, 3-[2-(3-Chlorophenyl)ethynyl]-5-(4-isopropylsulfonylphenyl)pyrazin-2-amine]: the Ki is at most 100 nM.
The same measure, in the same setting: as for `CC(C)S(=O)(=O)c1ccc(-c2cnc(N)c(C#Cc3cccc(F)c3)n2)cc1` [Compound I-1, 3-[2-(3-Fluorophenyl)ethynyl]-5-(4-isopropylsulfonylphenyl)pyrazin-2-amine], the figure is at most 100 nM; as for `CC(C)S(=O)(=O)c1ccc(-c2cnc(N)c(C#Cc3cc(Cl)cc(CO)c3)n2)cc1` [Compound I-48, (3-((3-amino-6-(4-(isopropylsulfonyl)phenyl)pyrazin-2-yl)ethynyl)-5-chlorophenyl)methanol], at most 100 nM.
For the compound `Cc1cccc(C#Cc2nc(-c3ccc(S(=O)(=O)C(C)C)cc3)cnc2N)c1` [Compound I-11, 5-(4-Isopropylsulfonylphenyl)-3-[2-(m-tolyl)ethynyl]pyrazin-2-amine], the Ki was at most 100 nM.
On the same count and under the same terms, as for `CC(C)S(=O)(=O)c1ccc(-c2cnc(N)c(C#Cc3ccccc3Cl)n2)cc1` [Compound I-12, 3-[2-(2-Chlorophenyl)ethynyl]-5-(4-isopropylsulfonylphenyl)pyrazin-2-amine], the figure is at most 100 nM.
The same measure, in the same setting: in the case of `CC(C)S(=O)(=O)c1ccc(-c2cnc(N)c(C#Cc3cncn3C)n2)cc1` [Compound I-39] it was at most 100 nM; in that of `CCC(=O)N1CC=C(c2cnc(N)c(C#Cc3cccc(O)c3)n2)CC1` [Compound I-30, 1-[4-[5-Amino-6-[2-(3-hydroxyphenyl)ethynyl]pyrazin-2-yl]-3,6-dihydro-2H-pyridin-1-yl]propan-1-one], at most 100 nM; in that of `CC(C)n1cc(-c2cnc(N)c(C#Cc3cccc(O)c3)n2)ccc1=O` [Compound I-16, 5-[5-Amino-6-[2-(3-hydroxyphenyl)ethynyl]pyrazin-2-yl]-1-isopropyl-pyridin-2-one], at most 100 nM.
Still for that read-out and setting: as for `CC(C)S(=O)(=O)c1ccc(-c2cnc(N)c(C#Cc3cccc(C(N)=O)c3)n2)cc1` [Compound I-37, 3-[2-[3-Amino-6-(4-isopropylsulfonylphenyl)pyrazin-2-yl]ethynyl]benzamide], the figure is at most 100 nM; as for `Nc1ncc(-c2ccc(S(=O)(=O)C3CCNCC3)cc2)nc1C#Cc1cccc(O)c1` [Compound I-17, 3-[2-[3-Amino-6-[4-(4-piperidylsulfonyl)phenyl]pyrazin-2-yl]ethynyl]phenol], at most 100 nM.
Take `COc1cccc(C#Cc2nc(-c3ccc(S(=O)(=O)C(C)C)cc3)cnc2N)c1` [Compound I-3, 5-(4-Isopropylsulfonylphenyl)-3-[2-(3-methoxyphenyl)ethynyl]pyrazin-2-amine]: the Ki was at most 100 nM.

The test is the same for the next values; noted with them: at 15 uM.
Take `CC(C)S(=O)(=O)c1ccc(-c2cnc(N)c(C#Cc3ccccc3CO)n2)cc1` [Compound I-46, (2-((3-amino-6-(4-(isopropylsulfonyl)phenyl)pyrazin-2-yl)ethynyl)phenyl)methanol]: the inhibition at 15 µM was found to be 30%.
